Measured values published in ChEMBL document CHEMBL4813917, “2-((1-Phenyl-1H-1,2,3-triazol-4-yl)methyl)-2-azabicyclo[3.2.1]octan-3-one derivatives: Simplification and modification of aconitine scaffold for the discovery of novel anticancer agents” (Eur J Med Chem, 2021).

Experiments:
A549 = experiment: Antiproliferative activity against human A549 cells assessed as inhibition of cell proliferation measured after 24 hrs by MTT assay; format: functional, cell-based; conditions: A549, 24 h
SGC-7901 = experiment: Antiproliferative activity against human SGC-7901 cells assessed as inhibition of cell proliferation measured after 24 hrs by MTT assay; format: functional, cell-based; conditions: SGC-7901, 24 h
HepG2 = experiment: Antiproliferative activity against human HepG2 cells assessed as inhibition of cell proliferation measured after 24 hrs by MTT assay; format: functional, cell-based; conditions: HepG2, 24 h
LoVo = experiment: Antiproliferative activity against human LoVo cells assessed as inhibition of cell proliferation measured after 24 hrs by MTT assay; format: functional, cell-based
PANC-1 = experiment: Antiproliferative activity against human PANC-1 cells assessed as inhibition of cell proliferation measured after 24 hrs by MTT assay; format: functional, cell-based; conditions: PANC-1, 24 h
OVCAR-3 = experiment: Antiproliferative activity against human OVCAR-3 cells assessed as inhibition of cell proliferation measured after 24 hrs by MTT assay; format: functional, cell-based; conditions: OVCAR-3, 24 h
[1] = Cytotoxicity against human MRC5 cells assessed as reduction in cell viability measured after 24 hrs by MTT assay; format: cell-based
[2] = Cytotoxicity against human HPDE6c7 cells assessed as reduction in cell viability measured after 24 hrs by MTT assay; format: functional
[3] = biological target: Heat shock protein HSP 90-alpha (Homo sapiens, UniProt P07900); experiment: Inhibition of recombinant human N terminal his-tagged HSP90 alpha (1 to 732 residues) expressed in Escherichia coli measured after 60 mins by Flourescence polarization assay
[4] = Cytotoxicity against human IOSE80 cells assessed as reduction in cell viability measured after 24 hrs by MTT assay; format: cell-based
[5] = Cytotoxicity against human L02 cells assessed as reduction in cell viability measured after 24 hrs by MTT assay; format: cell-based
[6] = Cytotoxicity against human GES1 cells assessed as reduction in cell viability measured after 24 hrs by MTT assay; format: cell-based
[7] = Cytotoxicity against human NCM460 cells assessed as reduction in cell viability measured after 24 hrs by MTT assay; format: cell-based

With `COc1ccccc1-n1cc(CN2C(=O)C[C@@H]3CC[C@@]2(C)C3(C)C)nn1` the IC50 (A549) was 350 nM, the IC50 (SGC-7901) was 280 nM and the IC50 (HepG2) was 110 nM. It also gave an IC50 (LoVo) of 70 nM, an IC50 (PANC-1) of 120 nM and an IC50 (OVCAR-3) of 140 nM.

`CC1(C)[C@H]2CC[C@]1(C)N(Cc1cn(-c3ccccc3Br)nn1)C(=O)C2` showed an IC50 (A549) of 130 nM, an IC50 (SGC-7901) of 500 nM and an IC50 (HepG2) of 150 nM. For the same compound, the IC50 (LoVo) was 60 nM, the IC50 (PANC-1) was 280 nM and the IC50 (OVCAR-3) was 140 nM.

For `CC1(C)[C@H]2CC[C@]1(C)N(Cc1cn(-c3ccc(O)cc3)nn1)C(=O)C2`, the IC50 (A549) was 140 nM, the IC50 (SGC-7901) was 330 nM and the IC50 (HepG2) was 80 nM. For the same compound, the IC50 (LoVo) was 410 nM, the IC50 (PANC-1) was 100 nM and the IC50 (OVCAR-3) was 410 nM.

With `CC1(C)[C@H]2CC[C@]1(C)N(Cc1cn(-c3cccc(Cl)c3)nn1)C(=O)C2` the IC50 (A549) was 60 nM, the CC50 at 24 h [1] was 8840 nM and the CC50 [2] was 13000 nM. The IC50 (SGC-7901) was 510 nM, the IC50 [3] was 7.38 nM and the CC50 at 24 h [4] was 13500 nM. For the same compound, the IC50 (HepG2) was 60 nM, the IC50 (LoVo) was 70 nM and the CC50 at 24 h [5] was 8510 nM. For the same compound, the CC50 at 24 h [6] was 69800 nM, the IC50 (PANC-1) was 260 nM and the CC50 at 24 h [7] was 8410 nM. The IC50 (OVCAR-3) was 50 nM.

Work on `Cc1cccc(-n2cc(CN3C(=O)C[C@@H]4CC[C@@]3(C)C4(C)C)nn2)c1` yielded an IC50 (A549) of 50 nM, an IC50 (SGC-7901) of 410 nM and an IC50 (HepG2) of 300 nM. For the same compound, the IC50 (LoVo) was 50 nM, the IC50 (PANC-1) was 240 nM and the IC50 (OVCAR-3) was 160 nM.

`CC1(C)[C@H]2CC[C@]1(C)N(Cc1cn(-c3ccccc3O)nn1)C(=O)C2` gave an IC50 (A549) of 230 nM, an IC50 (SGC-7901) of 410 nM and an IC50 (HepG2) of 120 nM. It also gave an IC50 (LoVo) of 540 nM, an IC50 (PANC-1) of 230 nM and an IC50 (OVCAR-3) of 90 nM.

With `COc1ccc(-n2cc(CN3C(=O)C[C@@H]4CC[C@@]3(C)C4(C)C)nn2)cc1` the IC50 (A549) was 50 nM, the IC50 (SGC-7901) was 480 nM and the IC50 (HepG2) was 100 nM. The IC50 (LoVo) was 70 nM, the IC50 (PANC-1) was 330 nM and the IC50 (OVCAR-3) was 250 nM.

In the case of `CC1(C)[C@H]2CC[C@]1(C)N(Cc1cn(-c3ccccc3Cl)nn1)C(=O)C2`, the IC50 (A549) is reported as 70 nM, the CC50 at 24 h [1] is reported as 4130 nM and the CC50 [2] is reported as 3940 nM. It also gave an IC50 (SGC-7901) of 220 nM, an IC50 [3] of 3.28 nM and a CC50 at 24 h [4] of 13400 nM. The IC50 (HepG2) was 60 nM, the IC50 (LoVo) was 190 nM and the CC50 at 24 h [5] was 20100 nM. The CC50 at 24 h [6] was 5370 nM, the IC50 (PANC-1) was 270 nM and the CC50 at 24 h [7] was 10800 nM. The IC50 (OVCAR-3) was 40 nM.

Work on `CC1(C)[C@H]2CC[C@]1(C)N(Cc1cn(-c3ccc(Cl)cc3)nn1)C(=O)C2` yielded an IC50 (A549) of 70 nM, an IC50 (SGC-7901) of 410 nM and an IC50 (HepG2) of 90 nM. The IC50 (LoVo) was 160 nM, the IC50 (PANC-1) was 440 nM and the IC50 (OVCAR-3) was 160 nM.

Compound `CC1(C)[C@H]2CC[C@]1(C)N(Cc1cn(-c3ccc(C#N)cc3)nn1)C(=O)C2` has an IC50 (A549) of 140 nM, a CC50 at 24 h [1] of 10800 nM and a CC50 [2] greater than 100000 nM. The IC50 (SGC-7901) was 500 nM, the IC50 [3] was 21.8 nM and the CC50 at 24 h [4] was 5520 nM. For the same compound, the IC50 (HepG2) was 50 nM, the IC50 (LoVo) was 90 nM and the CC50 at 24 h [5] was 15700 nM. The CC50 at 24 h [6] was 11200 nM, the IC50 (PANC-1) was 250 nM and the CC50 at 24 h [7] was 8140 nM. It also gave an IC50 (OVCAR-3) of 380 nM.

With `CC1(C)[C@H]2CC[C@]1(C)N(Cc1cn(-c3cccc(C#N)c3)nn1)C(=O)C2` the IC50 (A549) was 440 nM, the IC50 (SGC-7901) was 250 nM and the IC50 (HepG2) was 40 nM. The IC50 (LoVo) was 320 nM, the IC50 (PANC-1) was 260 nM and the IC50 (OVCAR-3) was 230 nM.
